# Where two headings read alike, the source gives them in different places.
# Legend:
# [1] = target: T1, Acetylcholinesterase (AChE) from Electrophorus electricus (Electrophorus electricus, UniProt O42275); experiment: biochemical
# T1 construct: purchased Sigma-Aldrich type VI-S (catalogue number not given)
# Protocol: (§1) The cholinesterase inhibitory potentials of the isolated compounds were evaluated via a spectrophotometric approach, which was adapted by Ellman’s method. […] Enzyme inhibition is a beneficial approach in order to evaluate the pharmacological potential of herbal remedies and pure substances. The inhibition of the AChE and BChE enzymes has been linked to the alleviation of symptoms associated with memory impairment in AD [10]. […] Methoxylation may decrease or increase activity depending on the type of flavonoids (flavones, flavanones, or isoflavones). […] Moreover, the hydrogenation of the double bond next to the carbonyl carbon in the structure of flavanones also decreases their affinity for cholinesterase inhibitory activity. However, there are some exceptions to the aforementioned observation of structure–activity relationship in the literature.
# (§2) Acetylcholinesterase (AchE) from Electrophorus electricus (electrical eels, type VI-S, 200–1000 unit/mg), Butyrylcholinesterase from equine serum (lyophilized powder ≥ 500 units/mg protein), substrate acetylthiocholine iodide (ATCI), S-butyrylthiocholine iodide (BTCI), sodium phosphate monobasic, and sodium phosphate dibasic were purchased from Sigma-Aldrich (St. Louis, MO, USA). The coloring agent 5,5-dithio-bis-[2-nitrobenzoic acid] (DTNB), and β-sitosterol were obtained from Acros Organics (Acros Organics, NJ, USA). […] Silica gel (Kieselgel 60, 230–400 mesh atm) was purchased from Merck (Darmstadt, Germany). The solvents were of analytical grade and used as received.
# (§3) Each run was carried out in triplicate on three consecutive days. Anti-BChE assays were performed using the same procedures described above but using BChE from equine serum (lyophilized powder ≥ 500 units/mg protein) instead of AChE and BTCI instead of ACTI. The final absorbance of each tested sample was calculated by subtracting the absorbance of their respective blank without enzyme addition. […] Then, the IC50 values of all tested samples and standards were calculated from the curve of the % inhibition versus concentration. (1) % Inhibition=Abs −ve control−Abs test sample/Abs −ve control×100
# [2] = target: T2, Butyrylcholinesterase from equine serum (Equus caballus, UniProt P81908); experiment: biochemical
# T2 construct: using BChE from equine serum (lyophilized powder ≥ 500 units/mg protein); purchased Sigma-Aldrich; host or cells: equine serum
# T2 sequence (P81908 whole entry): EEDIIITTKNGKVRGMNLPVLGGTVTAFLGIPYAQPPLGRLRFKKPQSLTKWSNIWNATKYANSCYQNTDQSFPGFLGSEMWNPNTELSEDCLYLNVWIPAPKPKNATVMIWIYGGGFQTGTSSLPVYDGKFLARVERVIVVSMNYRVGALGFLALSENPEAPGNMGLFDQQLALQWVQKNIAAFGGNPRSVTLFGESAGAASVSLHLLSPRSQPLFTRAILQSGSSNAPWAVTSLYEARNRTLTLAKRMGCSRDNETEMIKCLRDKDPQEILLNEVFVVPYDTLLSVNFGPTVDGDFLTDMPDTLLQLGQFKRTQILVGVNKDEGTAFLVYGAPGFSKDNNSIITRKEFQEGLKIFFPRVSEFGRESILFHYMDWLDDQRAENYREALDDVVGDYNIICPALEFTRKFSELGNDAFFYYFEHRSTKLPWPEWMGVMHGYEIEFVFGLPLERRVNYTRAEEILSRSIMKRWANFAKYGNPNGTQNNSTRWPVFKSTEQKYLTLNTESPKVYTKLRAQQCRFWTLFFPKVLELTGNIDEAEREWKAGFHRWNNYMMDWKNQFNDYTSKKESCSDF
# Protocol: as §1, §2, §3
# [3] = system: BChE; conditions: cited from earlier work
# [4] = system: AChE; conditions: cited from earlier work; for IC50 (AChE inhibitory activity): individual compound
# [5] = isolated compounds, Table 4, read-out: AChE (IC50)
# [6] = read-out: AChE (IC50) µg/mL (converted)
# [7] = AChE (IC50) µM, isolated compounds, Table 4
# [8] = AChE (IC50) µg/mL, isolated compounds, Table 4
# [9] = BChE (IC50) µM, isolated compounds, Table 4
# [10] = BChE (IC50) µg/mL, isolated compounds, Table 4
# [11] = luteolin isolated from Globularia meridionalis
# T1 sequence (O42275 24-633): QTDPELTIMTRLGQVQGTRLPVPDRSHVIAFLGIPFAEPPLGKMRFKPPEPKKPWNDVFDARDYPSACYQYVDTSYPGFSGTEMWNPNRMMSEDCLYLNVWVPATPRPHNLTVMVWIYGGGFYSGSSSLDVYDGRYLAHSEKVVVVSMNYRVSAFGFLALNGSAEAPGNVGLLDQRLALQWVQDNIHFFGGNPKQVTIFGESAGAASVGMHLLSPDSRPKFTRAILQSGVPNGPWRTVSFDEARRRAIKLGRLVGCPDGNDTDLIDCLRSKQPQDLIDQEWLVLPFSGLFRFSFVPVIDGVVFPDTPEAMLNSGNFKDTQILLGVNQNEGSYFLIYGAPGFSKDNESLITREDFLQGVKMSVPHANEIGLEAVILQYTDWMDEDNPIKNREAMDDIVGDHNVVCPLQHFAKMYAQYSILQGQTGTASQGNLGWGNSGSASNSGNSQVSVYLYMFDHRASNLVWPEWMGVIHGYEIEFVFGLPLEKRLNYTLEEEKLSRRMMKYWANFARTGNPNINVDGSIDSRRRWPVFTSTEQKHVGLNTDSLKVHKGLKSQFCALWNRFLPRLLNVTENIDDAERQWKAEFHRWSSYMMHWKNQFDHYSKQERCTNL
molecule,measurement,setting,value
"CCCCCCCCCCCCCCCCCCCCOC(=O)CCCCCCCCCCCCCCCCCCC [Compound 1, Arachidyl arachidate]",IC50,[1]; [5],248.6 ± 2.24 µM
same,IC50,[1]; [6],249 µM
same,IC50,[2]; read-out: BChE (IC50) µg/mL,> 253 µM
"O=c1cc(-c2ccc(O)c(O)c2)oc2cc(O)cc(O)c12 [Compound 2, Luteolin]",IC50,[1]; [7],20.5 ± 1.1 µM
same,IC50,[1]; [8],20.5 µM
same,IC50,[2]; [9],46.2 ± 2.2 µM
same,IC50,[2]; [10],46.2 µM
same,IC50 for BuChE,[3]; [11],37.2 ± 0.5 µg/mL
same,IC50 for AChE,[4]; [11],25.2 ± 0.4 µg/mL
same,IC50,"[4]; luteolin isolated from Rhizoma drynariae, read-out: AChE inhibition potential",17.3 ± 0.23 µM
"CC[C@H](CC[C@@H](C)[C@H]1CC[C@H]2[C@@H]3CC=C4C[C@@H](O)CC[C@]4(C)[C@H]3CC[C@]12C)C(C)C [Compound 3, β-sitosterol]",IC50,[1]; [7],137 ± 8.66 µM
same,IC50,[1]; [8],137 µM
same,IC50,[2]; [9],157 ± 7.26 µM
same,IC50,[2]; [10],157 µM
same,IC50 (AChE inhibitory activity),[4],55 µg/mL
"CC[C@H](/C=C/[C@@H](C)[C@H]1CC[C@H]2[C@@H]3CC=C4C[C@@H](O)CC[C@]4(C)[C@H]3CC[C@]12C)C(C)C [Compound 4, Stigmasterol]",IC50 (AChE inhibitory activity),[4],63 µg/mL
"O=C(O)/C=C/c1ccccc1 [Compound 5, Cinnamic acid]",IC50,[2]; [9],373 ± 16.4 µM
same,IC50,[2]; [10],373 µM
"O=C(O)C=Cc1ccc(O)cc1 [Compound 6, 4-Hydroxycinnamic acid]",IC50,[1]; [7],43.4 ± 0.61 µM
same,IC50,[1]; [8],43.4 µM
same,IC50,[2]; [9],409 ± 14.8 µM
same,IC50,[2]; [10],409 µM
O=Cc1ccc(CO)o1 [Compound 7],IC50,[1]; [5],158 ± 3.49 µM
same,IC50,[1]; [6],158 µM
same,IC50,[2]; read-out: BChE (IC50) µg/mL,> 793 µM
COc1ccc(-c2cc(=O)c3c(O)cc(O[C@@H]4O[C@H](CO)[C@H](O)[C@H](O)[C@H]4O)cc3o2)cc1 [acacetin-7-O-beta-D-galactopyranoside],IC50,[4]; read-out: IC50,6.7 µM
COc1ccc(-c2cc(=O)c3c(O)cc(O)cc3o2)cc1 [acacetin],IC50,[4]; read-out: IC50,65.3 µM
O=c1cc(-c2ccc(O)cc2)oc2cc(O)cc(O)c12 [apigenin],IC50,[4]; read-out: IC50 (AChE),34.4 ± 2.41 µM
O=c1cc(-c2ccccc2)oc2cc(O)c(O)c(O)c12 [baicalein],IC50,[4]; read-out: IC50 (AChE),46 ± 3.44 µM
Omifoate A [reference compound],IC50 for BChE,[3],9.07 µg/mL
same,IC50 for AChE,[4],6.51 µg/mL
